Test system: EpiSC-derived OPCs
Experiment: Oligodendrocyte formation and myelin sheaths on electrospun microfibers
Format: cell-based, mouse
Conditions: 100 nM, versus untreated OPCs; microscopic images
Procedure: A 12-well plate containing Mimetex aligned scaffold (microfiber plate, AMSBIO, AMS.TECL-006-1X, Electrospun poly-L-lactide Scaffold, […] fibre diameter cell crown inserts) was prepared as previously described. Briefly, inserts were sterilized with 70% ethanol and washed with PBS before being coated with polyornithine and laminin. After laminin coating, 100,000 cells/mL of EpiSC-derived OPCs were plated in differentiation medium. After 24 h the media was replaced with fresh media containing small molecule treatments. […] Plates were fixed with 4% PFA, permeabilized with 0.1% Triton X-100, and blocked with 10% donkey serum (v/v) in PBS for 60 min. Plates were stained for MBP (Abcam, ab7349; 1:100) and DAPI staining (Sigma; 5 μg/ml). After staining, the inserts were moved into new 12-well plate and covered with 2 mL of PBS before imaging in Operetta high content Imaging and analysis system. Plates were imaged on the Operetta High Content Imaging and Analysis system (PerkinElmer) and a set of 8 fields captured from each well resulting in an average of 45,000 cells being scored per well. Analysis (PerkinElmer Harmony and Columbus software) identified intact nuclei stained by DAPI and calculated the MBP signal intensity per cell per well. Microfiber insert tracking images were taken using a Leica DMi8 with a 20× Dry/NA 0.40 objective. […]

Compound: CCN(C/C=C\c1ccc(C2CCCCC2)c(Cl)c1)C1CCCCC1 [Cis-N-cyclohexyl-N-ethyl-3-(3-chloro-4-cyclohexylphenyl)prop-2-enylamine]
- amount of myelin sheaths formed on electrospun poly-L-lactide scaffold microfibers: significant increase in the amount of myelin sheaths

Reference: US10918610B2, “Compounds and methods of promoting myelination” (Case Western Reserve University, priority 2017, dated 2021)
